Assay results from ChEMBL document CHEMBL5696443 (Clin Cancer Res, 2016).
Active and inactive are the calls of the source. No cut-off for these calls is given here.

Columns and labels:
[1] = target: Dual specificity mitogen-activated protein kinase kinase 2 (Homo sapiens) (UniProt P36507); assay: Inhibition of human MAP2K2 at 1 uM using ERK2 as substrate in presence of [gamma33P]-ATP by HotSpot assay relative to control
[2] = target: Serine/threonine-protein kinase B-raf (Homo sapiens) (UniProt P15056); assay: Inhibition of human BRAF at 1 uM using MEK1 as substrate in presence of [gamma33P]-ATP by HotSpot assay relative to control
[3] = target: MAP kinase-interacting serine/threonine-protein kinase 1 (Homo sapiens, UniProt Q9BUB5, T385D); assay: Inhibition of human MNK1 T385D mutant using MBP as substrate in presence of [gamma33P]-ATP by HotSpot assay
[4] = target: Dual specificity protein kinase CLK3 (Homo sapiens) (UniProt P49761); assay: Inhibition of human CLK3 at 1 uM using MBP as substrate in presence of [gamma33P]-ATP by HotSpot assay relative to control
[5] = tested on: EML4-ALK (Homo sapiens), Q9UM73+Q9HC35 [L1196M]; details: BaF3, dose 200.0 nmol/L, time 3-5 weeks
[6] = target: Testis-specific serine/threonine-protein kinase 2 (Homo sapiens, UniProt Q96PF2); assay: Inhibition of human TSSK2 using KKKVSRSGLYRSPSMPENLNRPR as substrate in presence of [gamma33P]-ATP by HotSpot assay
[7] = target: Tyrosine-protein kinase Fer (Homo sapiens, UniProt P16591); assay: Inhibition of human FER using poly (Glu, Tyr)4:1 as substrate in presence of [gamma33P]-ATP by HotSpot assay
[8] = tested on: BaF3; assay: Antitumor activity against mouse BaF3 cells expressing native EML4-ALK implanted in mouse assessed as tumor regression at 25 mg/kg, po administered once daily and measured after 8 days relative to control; type: functional; details: time 8 day
[9] = target: CDK9/cyclin T1 (Homo sapiens) (UniProt O60563+P50750); assay: Inhibition of human CDK9/CyclinT1 at 1 uM using KTFCGTPEYLAPEVRREPRILSEEEQEMFRDFDYIADWC as substrate in presence of [gamma33P]-ATP by HotSpot assay relative to control; type: protein-complex assay
[10] = tested on: EML4-ALK (Homo sapiens), Q9UM73+Q9HC35 [G1202R]; details: BaF3, time 3-5 weeks
[11] = tested on: EML4-ALK (Homo sapiens), Q9UM73+Q9HC35 [G1202R]; details: BaF3, dose 500.0 nmol/L, time 3-5 weeks
[12] = target: Tyrosine-protein kinase ZAP-70 (Homo sapiens) (UniProt P43403); assay: Inhibition of human ZAP70 at 1 uM using MBP as substrate in presence of [gamma33P]-ATP by HotSpot assay relative to control
[13] = target: Eukaryotic elongation factor 2 kinase (Homo sapiens) (UniProt O00418); assay: Inhibition of human EEF2K at 1 uM using RKKFGESEKTKTKEFL as substrate in presence of [gamma33P]-ATP by HotSpot assay relative to control
[14] = target: Ephrin type-A receptor 7 (Homo sapiens, UniProt Q15375); assay: Inhibition of human EPHA7 using poly (Glu, Tyr)4:1 as substrate in presence of [gamma33P]-ATP by HotSpot assay
[15] = target: Ephrin type-B receptor 4 (Homo sapiens) (UniProt P54760); assay: Inhibition of human EPHB4 at 1 uM using poly (Glu, Tyr)4:1 as substrate in presence of [gamma33P]-ATP by HotSpot assay relative to control
[16] = target: Tyrosine-protein kinase Lck (Homo sapiens, UniProt P06239); assay: Inhibition of human LCK using poly (Glu, Tyr)4:1 as substrate in presence of [gamma33P]-ATP by HotSpot assay
[17] = target: Ephrin type-A receptor 8 (Homo sapiens) (UniProt P29322); assay: Inhibition of human EPHA8 at 1 uM using poly (Glu, Tyr)4:1 as substrate in presence of [gamma33P]-ATP by HotSpot assay relative to control
[18] = target: Tyrosine-protein kinase Lyn (Homo sapiens, UniProt P07948); assay: Inhibition of human LYNB at 1 uM using poly (Glu, Tyr)4:1 as substrate in presence of [gamma33P]-ATP by HotSpot assay relative to control
[19] = target: Tyrosine-protein kinase receptor UFO (Homo sapiens) (UniProt P30530); assay: Inhibition of human AXL at 1 uM using poly (Glu, Tyr)4:1 as substrate in presence of [gamma33P]-ATP by HotSpot assay relative to control
[20] = target: RAF proto-oncogene serine/threonine-protein kinase (Homo sapiens) (UniProt P04049); assay: Inhibition of human RAF1 at 1 uM using MEK1 as substrate in presence of [gamma33P]-ATP by HotSpot assay relative to control
[21] = target: Serine/threonine-protein kinase WNK3 (Homo sapiens) (UniProt Q9BYP7); assay: Inhibition of human WNK3 at 1 uM using MBP as substrate in presence of [gamma33P]-ATP by HotSpot assay relative to control
[22] = target: Ephrin type-A receptor 4 (Homo sapiens) (UniProt P54764); assay: Inhibition of human EPHA4 at 1 uM using poly (Glu, Tyr)4:1 as substrate in presence of [gamma33P]-ATP by HotSpot assay relative to control
[23] = target: Protein kinase C eta type (Homo sapiens) (UniProt P24723); assay: Inhibition of human PKCeta at 1 uM using ERMRPRKRQGSVRRRV as substrate in presence of [gamma33P]-ATP by HotSpot assay relative to control
[24] = target: Ribosomal protein S6 kinase alpha-3 (Homo sapiens, UniProt P51812); assay: Inhibition of human RPS6kA3 using KKLNRTLSVA as substrate in presence of [gamma33P]-ATP by HotSpot assay
[25] = target: Serine/threonine-protein kinase mTOR (Homo sapiens) (UniProt P42345); assay: Inhibition of human MTOR at 1 uM using 4EBP1 as substrate in presence of [gamma33P]-ATP by HotSpot assay relative to control
[26] = target: NT-3 growth factor receptor (Homo sapiens) (UniProt Q16288); assay: Inhibition of human NTRK3 at 1 uM using poly (Glu, Tyr)4:1 as substrate in presence of [gamma33P]-ATP by HotSpot assay relative to control
[27] = target: Serine/threonine-protein kinase Nek6 (Homo sapiens) (UniProt Q9HC98); assay: Inhibition of human NEK6 at 1 uM using casein as substrate in presence of [gamma33P]-ATP by HotSpot assay relative to control
[28] = tested on: KARPAS-299; details: time 72 hrs

Structure (SMILES): COc1cc(N2CCC(N3CCN(C)CC3)CC2)ccc1Nc1ncc(Cl)c(Nc2ccccc2P(C)(C)=O)n1 [BRIGATINIB]
- inhibition [1]: < 90%
- inhibition [2]: < 90%
- IC50 [3]: 88 nM
- inhibition [4]: < 90%
- inhibition [5]: inactive
- IC50 [6]: 138 nM
- IC50 [7]: 1.3 nM
- Activity [8]: 100%
- inhibition [9]: < 90%
- IC90 [10]: 762 nM
- inhibition [11]: Active
- inhibition [12]: < 90%
- inhibition [13]: < 90%
- IC50 [14]: > 1000 nM
- inhibition [15]: < 90%
- IC50 [16]: 512 nM
- inhibition [17]: < 90%
- inhibition [18]: < 90%
- inhibition [19]: < 90%
- inhibition [20]: < 90%
- inhibition [21]: < 90%
- inhibition [22]: < 90%
- inhibition [23]: < 90%
- IC50 [24]: 26 nM
- inhibition [25]: < 90%
- inhibition [26]: < 90%
- inhibition [27]: < 90%
- GI50 [28]: 10 nM
